Legend:
[1] = tested on: A121; experiment: Anticancer activity against human ovarian carcinoma A121 cells; type: functional
[2] = tested on: NCI-H125; experiment: Anticancer activity against human nonsmall cell lung carcinoma (H125 cells); type: functional
[3] = tested on: L1210; experiment: Anticancer activity against murine leukemia L1210 cells; type: functional, Mus musculus
[4] = tested on: MCF7; experiment: Anticancer activity against human breast carcinoma MCF-7 cells; type: functional
[5] = tested on: WiDr; experiment: Anticancer activity against human colon carcinoma WiDr cells; type: functional

## COc1cc2c(c3c1C(=O)c1c(NCCNCCO)ccc(NCCNCCO)c1C3=O)CCCC2
[1]
  Activity: 100 nM
[2]
  Activity: 220 nM
[3]
  Activity: 2 µM
[4]
  Activity: 1000 nM
[5]
  Activity: 960 nM
